These results are taken from ChEMBL document CHEMBL5500354, “Novel selective agents for the degradation of AR/AR-V7 to treat advanced prostate cancer” (Eur J Med Chem, 2024).

Assay [1] has as its system LNCaP. In words: cells. To be noted: Homo sapiens, 24 h, read-out: INH.
Description: Antiproliferative activity against human LNCaP cells assessed as inhibition rate at 10 uM incubated for 24 hrs by CCK8 assay relative to control
For assay [2], the system named is CWR22R. In words: cells. To be noted: Homo sapiens, 22Rv1, 24 h, read-out: INH.
Description: Antiproliferative activity against human 22Rv1 cells assessed as inhibition rate at 10 uM incubated for 24 hrs by CCK8 assay relative to control
In assay [3] the target is T1, Androgen receptor (Homo sapiens, UniProt P10275).
T1 sequence (P10275 whole entry): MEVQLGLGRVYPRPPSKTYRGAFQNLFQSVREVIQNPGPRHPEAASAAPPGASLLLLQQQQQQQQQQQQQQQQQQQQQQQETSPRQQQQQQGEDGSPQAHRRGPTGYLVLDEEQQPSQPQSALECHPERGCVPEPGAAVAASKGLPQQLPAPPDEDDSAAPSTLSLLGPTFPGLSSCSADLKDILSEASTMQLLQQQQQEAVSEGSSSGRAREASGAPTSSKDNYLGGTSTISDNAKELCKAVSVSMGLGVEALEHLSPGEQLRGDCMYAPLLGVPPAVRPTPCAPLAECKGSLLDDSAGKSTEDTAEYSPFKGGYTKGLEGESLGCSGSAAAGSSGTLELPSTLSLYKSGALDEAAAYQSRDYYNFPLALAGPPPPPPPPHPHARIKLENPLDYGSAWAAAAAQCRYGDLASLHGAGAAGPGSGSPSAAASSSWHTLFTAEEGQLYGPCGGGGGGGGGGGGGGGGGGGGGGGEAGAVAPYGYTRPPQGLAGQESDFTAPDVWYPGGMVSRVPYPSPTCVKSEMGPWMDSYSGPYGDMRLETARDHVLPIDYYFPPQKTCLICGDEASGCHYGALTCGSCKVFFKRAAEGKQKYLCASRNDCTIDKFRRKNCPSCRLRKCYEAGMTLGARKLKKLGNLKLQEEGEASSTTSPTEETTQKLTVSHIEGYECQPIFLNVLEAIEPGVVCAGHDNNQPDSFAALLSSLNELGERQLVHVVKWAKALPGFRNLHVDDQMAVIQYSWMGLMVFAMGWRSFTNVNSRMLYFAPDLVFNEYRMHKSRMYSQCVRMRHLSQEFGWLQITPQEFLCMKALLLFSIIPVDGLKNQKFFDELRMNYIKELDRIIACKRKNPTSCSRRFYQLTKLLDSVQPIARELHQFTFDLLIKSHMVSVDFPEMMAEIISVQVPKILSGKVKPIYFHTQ
Briefly: Binding affinity to human androgen receptor transfected in HEK293 cell membrane co-transfected with ARC1 assessed as inhibition of [3H]-methyltrienolone binding to receptor incubated for 30 mins by competitive ligand binding assay.

The target of assay [4] is T1, Androgen receptor.
Description: Antagonist activity at androgen receptor (unknown origin) transfected in HEK293T cells co-transfected with luciferase reporter gene assessed as inhibition of transcriptional activity incubated for 18 to 20 hrs by luminescence plate reader analysis
The target of assay [5] is T2, Androgen receptor (Rattus norvegicus, UniProt P15207).
T2 sequence (P15207 whole entry): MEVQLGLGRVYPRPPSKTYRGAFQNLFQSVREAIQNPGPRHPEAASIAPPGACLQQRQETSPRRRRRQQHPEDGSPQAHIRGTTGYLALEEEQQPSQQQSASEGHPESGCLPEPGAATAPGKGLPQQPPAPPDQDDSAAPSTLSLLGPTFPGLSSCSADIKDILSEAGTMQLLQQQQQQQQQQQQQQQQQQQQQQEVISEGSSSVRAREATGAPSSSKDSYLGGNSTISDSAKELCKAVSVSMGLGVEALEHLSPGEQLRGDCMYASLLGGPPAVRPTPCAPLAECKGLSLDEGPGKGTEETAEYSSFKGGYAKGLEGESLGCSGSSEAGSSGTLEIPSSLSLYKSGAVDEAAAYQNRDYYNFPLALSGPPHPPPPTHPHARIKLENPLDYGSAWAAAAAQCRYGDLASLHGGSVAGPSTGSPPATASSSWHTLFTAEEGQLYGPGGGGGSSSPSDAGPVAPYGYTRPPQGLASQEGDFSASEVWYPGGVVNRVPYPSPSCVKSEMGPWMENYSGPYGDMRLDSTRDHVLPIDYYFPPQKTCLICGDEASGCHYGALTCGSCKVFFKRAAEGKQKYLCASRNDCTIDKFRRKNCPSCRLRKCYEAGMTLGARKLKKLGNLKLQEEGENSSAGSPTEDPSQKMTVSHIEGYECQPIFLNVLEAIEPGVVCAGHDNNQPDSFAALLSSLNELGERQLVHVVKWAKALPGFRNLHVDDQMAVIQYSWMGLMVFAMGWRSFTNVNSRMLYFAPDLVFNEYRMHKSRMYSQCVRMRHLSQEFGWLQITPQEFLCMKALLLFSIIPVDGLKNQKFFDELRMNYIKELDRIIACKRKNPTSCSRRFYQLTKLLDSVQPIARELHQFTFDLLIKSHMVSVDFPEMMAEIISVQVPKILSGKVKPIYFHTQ
In words: Binding affinity to GST/His-tagged recombinant rat androgen receptor (606 to 902 residues) ligand binding domain expressed in baculovirus expression system assessed as dissociation constant by Biolayer interferometric analysis. (In general: Biolayer interferometry detects binding as a change in optical thickness at a sensor tip.)

The subject of assay [6] is LNCaP. In words: Antiproliferative activity against human LNCaP cells assessed as reduction in cell viability incubated for 24 hrs by CCK8 assay. Background: Tetrazolium assays rely on reduction of a dye to a coloured formazan, in cell work by metabolically active cells.
Assay [7] deals with CWR22R. Briefly: Antiproliferative activity against human 22Rv1 cells assessed as reduction in cell viability incubated for 24 hrs by CCK8 assay. To be noted: 22Rv1, 24 h.

Each structure is given as a SMILES string. A value given as a limit tells only on which side of the number the result lay.

As for `N#Cc1ccc(O[C@H]2CC[C@H](NC(=O)c3ccc(N4CCC(CN5CCN(C6CN(CCCF)C6)CC5)CC4)nn3)CC2)cc1Cl`, the inhibition at 10 µM in the assay on LNCaP [1] was 17%; in the assay on CWR22R [2], 29%.

Regarding `N#Cc1ccc(O[C@H]2CC[C@H](NC(=O)c3ccc(N4CCC(CNC5CN(CCCF)C5)CC4)nn3)CC2)cc1Cl`, the values for the IC50 at Androgen receptor [3] and on Androgen receptor [4] were 5.41 nM and above 10000 nM, respectively. Moreover, the values for the inhibition at 10 µM in the assay with LNCaP [1] and in the assay on CWR22R [2] were 10% and below 10%, respectively.

Turning to `N#Cc1ccc(O[C@H]2CC[C@H](NC(=O)c3ccc(N4CCC(Cc5ccc(NCCCF)cc5)CC4)nn3)CC2)cc1Cl`, the inhibition at 10 µM with LNCaP [1] and in the assay with CWR22R [2] was below 10% each time.

`N#Cc1ccc(O[C@H]2CC[C@H](NC(=O)c3ccc(N4CCC(Cc5ccc(NC6CN(CCCF)C6)cc5)CC4)nn3)CC2)cc1Cl`: the Kd (in general, the concentration at which binding is half-saturated) on Androgen receptor [5] amounted to 590 nM.

As for `N#Cc1ccc(O[C@H]2CC[C@H](NC(=O)c3ccc(N4CCC(CC5CN(CCCF)C5)CC4)nn3)CC2)cc1Cl`, at Androgen receptor [3], the 50% inhibitory concentration (IC50) (as a rule, the point on the concentration scale where inhibition reaches its midpoint) came out at 3.67 nM. Further, the inhibition at 10 µM in the assay with LNCaP [1] was 21%; with CWR22R [2] it was below 10%.

As to `N#Cc1ccc(O[C@H]2CC[C@H](NC(=O)c3ccc(N4CCC(N5CC(CF)C5)CC4)nn3)CC2)cc1Cl`, the inhibition at 10 µM in the assay with LNCaP [1] was 15%; in the assay with CWR22R [2] it was below 10%.

Consider `CCCNc1ccc(CC2CCN(c3ccc(C(=O)N[C@H]4CC[C@H](Oc5ccc(C#N)c(Cl)c5)CC4)nn3)CC2)cc1`, for which the inhibition at 10 µM in the assay on LNCaP [1] and in the assay with CWR22R [2] was below 10% in each case.

In the case of `N#Cc1ccc(O[C@H]2CC[C@H](NC(=O)c3ccc(N4CCC(CN5CCN(c6ccc(/C=C/C(=O)O)cc6)CC5)CC4)nn3)CC2)cc1Cl`, the values for the inhibition at 10 µM in the assay on LNCaP [1] and in the assay on CWR22R [2] were 36% and below 10%, respectively.

With `N#Cc1ccc(O[C@H]2CC[C@H](NC(=O)c3cccnn3)CC2)cc1Cl`, the IC50 at Androgen receptor [3] was 1.52 nM; against Androgen receptor [4], 60.8 nM. Also, the inhibition at 10 µM in the assay with LNCaP [1] and with CWR22R [2] was below 10% in each case.

As to `N#Cc1ccc(O[C@H]2CC[C@H](NC(=O)c3ccc(N4CCC(CN5CCN(CC[S+]([O-])CCCC(F)(F)C(F)(F)F)CC5)CC4)nn3)CC2)cc1Cl` (stereo partly drawn), the inhibition at 10 µM was 13% in the assay on LNCaP [1] and below 10% in the assay on CWR22R [2].

On to `N#Cc1ccc(O[C@H]2CC[C@H](NC(=O)c3ccc(N4CCC(CN5CCN(CCCC(F)(F)C(F)(F)F)CC5)CC4)nn3)CC2)cc1Cl`, for which the IC50 is 12.4 nM at Androgen receptor [3] and above 10000 nM against Androgen receptor [4]. Besides, the inhibition at 10 µM with LNCaP [1] and with CWR22R [2] was below 10% each time.

As for `N#Cc1ccc(O[C@H]2CC[C@H](NC(=O)c3ccc(N4CCC(CN5CCN(c6ccc(NC7CN(CCCF)C7)cc6)CC5)CC4)nn3)CC2)cc1Cl`, the IC50 at Androgen receptor [3] amounted to 6.81 nM; in the assay on LNCaP [6] it was 6860 nM; in the assay with CWR22R [7], 5120 nM; against Androgen receptor [4], 394 nM. In addition, the inhibition at 10 µM in the assay on LNCaP [1] and in the assay on CWR22R [2] was above 50% each time.

`N#Cc1ccc(O[C@H]2CC[C@H](NC(=O)c3ccc(-c4ccc(NC5CN(CCCF)C5)cc4)nn3)CC2)cc1Cl`: the inhibition at 10 µM was 13% with LNCaP [1] and 28% in the assay with CWR22R [2].

Consider `N#Cc1ccc(O[C@H]2CC[C@H](NC(=O)c3ccc(-c4ccc(NCCCCCF)cc4)nn3)CC2)cc1Cl`, for which the inhibition at 10 µM in the assay on LNCaP [1] and with CWR22R [2] was below 10% each time.
